The source of these data is patent US10149887B2, “Peptides and peptidomimetics in combination with t cell activating and/or checkpoint inhibiting agents for cancer treatment” (CanBas Co., Ltd., priority 2015, dated 2018).

Square brackets hold non-standard residues; d marks the D form. Peptide text beside a SMILES is read from it. dPhe(F5) = N[C@H](Cc1c(F)c(F)c(F)c(F)c1F)C(=O)O; dBpa = N[C@H](Cc1ccc(C(=O)c2ccccc2)cc1)C(=O)O; dCha = N[C@H](CC1CCCCC1)C(=O)O

Data set [1] concerns MIAPaCa2 human pancreatic carcinoma cells. As to the kind of experiment: Colony formation analysis of MIAPaCa2 cells. Type of data set: cell-based. To be noted: CBP501 10 μmM, cisplatin or oxaliplatin 1, 3 or 9 μg/ml, three hours, then 10 days.
Procedure: Briefly, cells were plated at 300 cells/well in 6 well plates, incubated overnight, and treated with the compounds for three hours. The medium was changed and cultured for an additional 10 days. Cells were subsequently fixed with 70% methanol, stained with 0.1% crystal violet and visualized.
For the next data set, the system named is phospho-eIF2-alpha. As to the kind of experiment: CDDP-induced phosphorylation of eIF2-alpha in CT26WT cells (immunoblotting). The settings on record: 10-20 uM CDDP with 0.5 μM CBP501, 45 min. Format: cell-based, murine. As to the method: A day later, cells were collected and analyzed by immunoblotting using specific antibody against phospho-eIF2-alpha (n=8) (FIG. 22A) and the amount of relative Phospho-eIF2-alpha was quantitated (FIG. 22B). Samples were compared by student's t-test. *P<0.05 **P<0.01, compared with untreated cells, and ^†P<0.05, ^††P<0.01, compared with the corresponding CDDP alone.
(§1) After changing with fresh drug-free medium, cells were incubated for 24, 48, or 72 hours for Immunoblotting analysis of phospho-eIF2-alpha, for calreticulin analysis by FACS, or for HMGB1 ELISA.
Cells were lysed by incubating with a buffer [NaCl (100 mM), Tris-HCl (50 mM, pH 8.0), DTT (1 mM), NP40 (0.5% w/v) containing PhosSTOP Phosphatase Inhibitor Cocktail and Complete Proteinase Inhibitor Cocktail Tablets (Roche Life Science) each diluted to the manufacturer's specified concentrations] at 4° C. for 30 minutes and centrifuged (15 000 rpm, 4° C., 20 minutes). The supernatant (whole-cell lysate) was electrophoresed (SDS-PAGE), and transferred from the gel onto a polyvinylidene difluoride (PVDF) membrane (Millipore) by electroblotting. […] Images were recorded with a Luminescent Image Analyzer LAS-4000 system (Fujifilm) and quantified the band intensity with Multi Gauge software (Fujifilm).

In the next data set the test system is neutrophils. The data set is described as follows: NET formation by activated neutrophils (elastase activity). Type of data set: cell-based, human. The settings on record: 1 μM CBP501; PMA, A23187 or LPS. The text has this:
Referring to FIG. 17, Neutrophils were purified with EasySep neutrophil enrichment kit (Stemcell technol.) from human peripheral blood after removal of red blood cells with Hetasep (Stemcell technol.).

Data set [2] is described as follows: Human serum treatment analysis (residual G2 checkpoint abrogating activity). Format: in vitro ADME. The settings on record: 37 degrees. As to the method: Serum analysis was performed to determine the stability of peptides in mouse and human serum. Briefly, peptides (10 mM or 2.5 mM) were incubated with freshly prepared human serum at 37 degrees for 1 hr. […] Jurkat cells were treated with the serum with or without peptides and bleomycin (40 μg/ml) and incubated for 24 hr. The population of G2 phase cells was determined by flow cytometry as previously described. The residual G2 checkpoint abrogating activity of serum treated peptides were determined by comparing the % G2 cells of the treated serum and the standard curve produced with medium treated peptides, bleomycin and Jurkat cells (Table 5A).

A further data set has as its system HMGB1. As to the kind of experiment: HMGB1 secretion from CT26WT cells (ELISA). Format: cell-based, murine. To be noted: 20 μM CDDP with 0.5 μM CBP501, 45 min. As for the experimental part:
Secreted HMGB1 into the medium was collected at 24, 48 and 72 hours after treatment (n=3). Quantification of the secreted HMGB1 was conducted by HMGB1 ELISA kit II. Samples were compared by student's t-test. *P<0.05 **P<0.01, compared with untreated control cells, and ^†P<0.05, ^††P<0.01, compared with the corresponding CDDP alone.
as §1
The secreted HMGB1 to the medium was quantificated by HMGB1 ELISA kit II (SINO-TEST CORPORATION, kanagawa, Japan) according to manufacturer's instructions.
For orientation: ELISA stands for enzyme-linked immunosorbent assay.

A short description of data set [3]: In vivo half life in mouse serum (HPLC). To be noted: 40 mg/kg ip, read-out: Half-life after 40 mg/kg intra-peritoneal injection (converted).
The subject of another data set is Jurkat cells. The data set is described as follows: G2 checkpoint abrogation, flow cytometry of bleomycin treated Jurkat cells. Format: cell-based, human.
Another data set deals with calreticulin. As to the kind of experiment: Cell surface calreticulin exposure in CT26WT cells (FACS). Type of data set: cell-based, murine. The settings on record: 10-20 uM CDDP with 0.5 μM CBP501, 45 min. As for the experimental part: Two days later, the cells were collected and analyzed by FACS with specific calreticulin antibody and propidium iodide (n=3). Samples were compared by student's t-test. *P<0.05 **P<0.01, compared with untreated cells, and ^†P<0.05, ^††P<0.01, compared with the corresponding CDDP alone.
as §1
Cells were collected and washed with PBS, followed by fixation with PBS containing 0.25% PFA for 5 minutes. The fixed cells were washed twice with ice-cold PBS and treated on ice with anti-calreticulin antibody (abcam) diluted with PBS containing 2% FBS (1/200) for 30 minutes. The primary antibody were removed with twice PBS containing 2% FBS wash and treated with alexa488-condjugated secondary antibody diluted with PBS containing 2% FBS (1/500) for 30 minutes at RT. The secondary antibody were removed with twice PBS and treated on ice with propidium iodide (1 ug/ml) for more than 5 minutes, followed by FACS analysis using FACSCalibur.

In data set [4] the test system is MIAPaCa2 human pancreatic carcinoma cells. As to the kind of experiment: MIAPaCa2 subcutaneous xenograft in scid mice. Type of data set: in vivo, mouse. As for the experimental part: Day0 indicates treatment initiation. Mean tumor sizes with standard deviation for each treatment group are indicated on the Y-axis and the number of days following treatment initiation are indicated on the X-axis.
To study in vivo efficacy of the compounds, MIAPaCa2 human pancreatic carcinoma cells were implanted subcutaneously in scid mice. The treatment was initiated when the size of the primary tumor became 0.1 cm3 (Day0) or larger, e.g., 7 or 8 mm in diameter. CDDP (3 mg/kg) and CBP 501 (10 or 40 mg/kg) were intra-peritoneally administered alone or in combination. Tumor sizes were measured using calipers three times a week, and volumes were calculated using the formula: weight (mg)=[width (mm)2×length (mm)]/2. Mean tumor sizes for each treatment group are plotted (n=4) against the days after the start of treatment (FIG. 10).

The subject of another data set is CT26WT cells. To be noted: 3 hours treatment, two days later.
The subject of another data set is RAW264.7. As to the kind of experiment: TNF release from macrophage cell line RAW264.7 (ELISA). Format: cell-based, mouse. To be noted: 0.1 or 1 μM CBP501, LPS. As to the method: The released TNF were measured by ELISA.
Data set [5] concerns CBP501-sensitive human cancer cell lines. The data set is described as follows: Intracellular accumulation of CDDP. Type of data set: cell-based.
For data set [6] the following is noted: cited from earlier work.

Procedure for Jurkat cells: Cell-cycle analysis The cell cycle status of the cells treated with bleomycin or adriamcin were analyzed by flow cytometry as described by Kawabe (1997) Nature 385:454-458. In brief, two million cells were re-suspended and incubated in 200 μl Krishan's solution (0.1% Sodium citrate, 50 μg/ml PI, 20 μg/ml RNase A and 0.5% NP-40) for 1 hr at 4° C. and analyzed by a flow cytometry, FACScan™ (Beckton Dickinson, Mountain View, Calif.) with the program CELLQuest™ (Beckton Dickinson).
Flow cytometry analysis of G2 checkpoint abrogation was performed using human leukemia derived Jurkat cell line. In brief, cultured cells were treated with various doses of peptide/peptidomimetic and 40 μg/ml bleomycine for 24 hr. The DNA of the cells was stained with propidium iodide and analyzed by flow cytometry.
The “G2 abrogating dose” indicates the peptide/peptidomimetic dose with 40 μg/ml bleomycine that produced detectable G2 checkpoint abrogation activity following treatment for 24 hours.
The G2 checkpoint abrogating activity of various arginine rich sequences at different doses on cells treated with bleomycine was studied. Briefly, peptides were added to culture medium of Jurkat cells with bleomycin (40 μg/ml) at 0.2 μg/ml, 0.39 μg/ml, 0.78 μg/ml, 1.56 μg/ml, 3.125 μg/ml, 6.25 μg/ml, 12.5 μg/ml, 25 μg/ml and 50 μg/ml. Cells were subsequently harvested after 24 hours, stained with Krishan's solution, and analyzed with flow cytometry as previously described.

As for `N=C(N)NCCC[C@@H](NC(=O)[C@@H](CCCNC(=N)N)NC(=O)[C@@H](CCC(N)=O)NC(=O)[C@@H](CCCNC(=N)N)NC(=O)[C@@H](CCCNC(=N)N)NC(=O)[C@@H](CCCNC(=N)N)NC(=O)[C@@H](CC1CCCCC1)NC(=O)[C@@H](Cc1c(F)c(F)c(F)c(F)c1F)NC(=O)[C@@H](CO)NC(=O)[C@@H](Cc1c[nH]c2ccccc12)NC(=O)[C@@H](CO)NC(=O)[C@H](N)Cc1ccc(C(=O)c2ccccc2)cc1)C(=O)O` [CBP501, (d-Bpa)(d-Ser)(d-Trp)(d-Ser)(d-Phe-2,3,4,5,6-F)(d-Cha)(d-Arg)(d-Arg)(d-Arg)(d-Gln)(d-Arg)(d-Arg)] (H-[dBpa][dS][dW][dS][dPhe(F5)][dCha][dR][dR][dR][dQ][dR][dR]-OH; N-terminus and C-terminus assumed), the “Enhancement of cyto-toxic activity of cisplatin and oxaliplatin, colony formation” value in data set [1] is “enhanced the cyto-toxic activity of both cisplatin and oxaliplatin”. In addition, the “CDDP-induced phosphorylation of eIF2-alpha” value in the data set with phospho-eIF2-alpha was “augmented”. The “NET formation by activated neutrophils” value in the data set on neutrophils is “increased NET formation”. Besides, the “Residual activity of peptide after 1 hr human serum treatment” value in [2] is >50% of original. For the same compound, the “HMGB1 release, CDDP combined with CBP501 vs CDDP alone” value with HMGB1 is on record as “about 2 times”. In addition, the half-life in [3] is 3 h. Moreover, the “G2 checkpoint abrogating activity (in words)” value with Jurkat cells (Jurkat cells with bleomycin 40 μg/ml) is reported as “abrogated in a dose dependent manner”. In addition, the G2 abrogating dose in the data set on Jurkat cells (dose with 40 μg/ml bleomycine giving detectable G2 checkpoint abrogation, 24 hours) is not below 0.39 µM. Also, the “Calreticulin exposure to the cell surface” value with calreticulin is “Positive effect”. Moreover, in “Solubility in water”, the Solubility in water entry is reported as “soluble in water”. Further, the “Tumor growth, CBP501 treatment alone” value in [4] (CBP501 10 or 40 mg/kg ip) is listed as “suppresses the growth of human pancreatic cancer cell in vivo”. The “Anti-tumor activity of cisplatin in combination with CBP501” value in data set [4] (CDDP 3 mg/kg and CBP501 10 or 40 mg/kg ip) is recorded as “increased the anti-tumor activity of cisplatin”. In the data set on CT26WT cells, the “Potency in changing cell cycle phase distribution, CDDP combined with CBP501 vs CDDP alone” value is recorded as “about 2 times”. In the data set on RAW264.7, the “Cytokine secretion (TNF release) of macrophages” value is reported as “Inhibition of cytokine secretion”. Further, the “Intracellular accumulation of CDDP, CDDP combined with CBP501 vs CDDP alone” value in [5] lay within 1.5 to 3 times. Also, in data set [6] (CBP501 36.4 mg/m^2 and cisplatin 75 mg/m^2), the “Patients with dose limiting allergic reactions (grade 3)” value is recorded as “two out of six”. Moreover, the “MTD of CBP501 in combination with cisplatin” value in [6] (with cisplatin 75 mg/m^2, once every 21 days) was 24.3 mg/m^2.
